Data on 14 compounds can be found in patent US9580390B2, “Indazole compounds as kinase inhibitors and method of treating cancer with same” (University Health Network, priority 2011, dated 2017).

For one experiment, the system named is Breast cancer cells. Description: Cancer cell line growth inhibition (SRB assay). It counts as cell-based. As to conditions: Homo sapiens; MDA-MB-468; read-out: Cancer Cell Line GI50 Range MDA-MB-468. For orientation: In SRB staining, fixed cells bind dye roughly in proportion to their protein.
Another experiment has as its target T1, human TTK (Homo sapiens, UniProt P33981).
T1 construct: amino terminal GST fusion of full length human TTK; purchased Invitrogen
T1 sequence (P33981 1-857): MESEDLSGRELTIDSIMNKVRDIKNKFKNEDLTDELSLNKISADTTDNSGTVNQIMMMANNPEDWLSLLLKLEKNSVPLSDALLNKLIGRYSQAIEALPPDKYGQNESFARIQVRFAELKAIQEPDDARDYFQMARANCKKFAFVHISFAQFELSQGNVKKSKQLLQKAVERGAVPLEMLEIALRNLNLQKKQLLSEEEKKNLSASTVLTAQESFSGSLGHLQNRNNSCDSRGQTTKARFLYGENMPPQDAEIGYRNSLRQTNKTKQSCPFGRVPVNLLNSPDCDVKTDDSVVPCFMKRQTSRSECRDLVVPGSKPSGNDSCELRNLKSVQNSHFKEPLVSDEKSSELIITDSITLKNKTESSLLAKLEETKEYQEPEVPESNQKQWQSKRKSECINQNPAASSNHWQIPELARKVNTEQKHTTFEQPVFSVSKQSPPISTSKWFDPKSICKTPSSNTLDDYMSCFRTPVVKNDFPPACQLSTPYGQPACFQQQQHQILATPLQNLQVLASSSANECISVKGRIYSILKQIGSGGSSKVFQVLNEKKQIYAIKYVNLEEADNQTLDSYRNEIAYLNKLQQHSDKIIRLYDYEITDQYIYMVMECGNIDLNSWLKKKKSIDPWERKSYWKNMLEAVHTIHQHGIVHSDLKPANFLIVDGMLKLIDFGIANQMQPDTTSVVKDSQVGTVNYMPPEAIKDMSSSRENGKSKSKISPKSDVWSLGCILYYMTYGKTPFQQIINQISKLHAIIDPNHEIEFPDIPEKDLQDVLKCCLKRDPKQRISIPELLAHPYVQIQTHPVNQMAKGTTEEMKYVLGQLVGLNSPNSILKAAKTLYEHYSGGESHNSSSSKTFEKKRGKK
Kind of experiment: TTK inhibition assay (indirect ELISA). Format: biochemical. As to conditions: read-out: TTK IC50 Range. (In general: In an ELISA, binding on a coated surface is turned into a signal by an enzyme label.)

For experiment [1], the system named is ovarian cancer cells (PA-1). Description: Cancer cell line growth inhibition (SRB assay). Format: cell-based. As to conditions: Homo sapiens, PA-1; read-out: Cancer Cell Line GI50 Range PA-1.
For the next experiment, the system named is TICs (Colon 12). Kind of experiment: Colon tumor-initiating cell growth inhibition (Alamar Blue). It counts as cell-based. Conditions: 216 h; Colon 12 TICs, 9 days; read-out: Tumor Initiating Cell GI50 Range Colon 12. On the technique in general: Alamar Blue is a resazurin reagent that responds to reducing activity.
The test system of the next experiment is TICs (Ovarian 2393A). Kind of experiment: Ovarian tumor-initiating cell growth inhibition (Alamar Blue). Format: cell-based. As to conditions: 144 h; Ovarian 2393A TICs, 6 days; read-out: Tumor Initiating Cell GI50 Range Ovarain 2393A.
Experiment [2] relates to colon cancer cells (HCT116). Description: Cancer cell line growth inhibition (SRB assay). It counts as cell-based. As to conditions: Homo sapiens, HCT-116; read-out: Cancer Cell Line GI50 Range HCT116.

A word on the GI50: it is the concentration that inhibits growth by half. What is called IC50 is the point on the concentration scale where inhibition reaches its midpoint.

On to `CCC[C@H](NC(=O)c1ccc2[nH]nc(-c3ccc(OC4CC5CCC(C4)N5C=O)cc3)c2c1)c1ccccc1` (stereo partly drawn) [Example A343, 3-(4-(((1R,3R,5S)-8-formyl-8-azabicyclo[3.2.1]octan-3-yl)oxy)phenyl)-N-((S)-1-phenylbutyl)-1H-indazole-5-carboxamide], for which the concentration for 50% growth inhibition (GI50) in the experiment on Breast cancer cells was 100 to 500 nM; in experiment [1], below 100 nM; with TICs (Colon 12), below 100 nM; with TICs (Ovarian 2393A), 100 to 500 nM; in experiment [2], below 100 nM. For the same compound, on human TTK, the half-maximal inhibitory concentration (IC50) was below 100 nM.
In the case of `CC(C)[C@H](NC(=O)c1ccc2[nH]nc(-c3ccc(N4C5CCC4CC(O)C5)cc3)c2c1)c1ccccc1Cl` (stereo partly drawn) [Example A356, N-((S)-1-(2-chlorophenyl)-2-methylpropyl)-3-(4-((1R,3S,5S)-3-hydroxy-8-azabicyclo[3.2.1]octan-8-yl)phenyl)-1H-indazole-5-carboxamide], the GI50 (in the experiment with Breast cancer cells; in experiment [1]; in the experiment with TICs (Colon 12); in the experiment with TICs (Ovarian 2393A); in experiment [2]) was below 100 nM throughout. For the same compound, the half-maximal inhibitory concentration (IC50) at human TTK is below 100 nM.
With `CC(C)CC(NC(=O)c1ccc2[nH]nc(-c3ccc(O[C@H]4C[C@H]5CC[C@@H](C4)N5C=O)cc3)c2c1)c1ccccn1` (stereo partly drawn) [Example A339], the 50% growth inhibitory concentration (GI50) (in the experiment with Breast cancer cells; in experiment [1]; with TICs (Colon 12); in the experiment on TICs (Ovarian 2393A); in experiment [2]) was below 100 nM each time. Also, the half-maximal inhibitory concentration (IC50) on human TTK is below 100 nM.
With `CN1CCC(Oc2ccc(-c3n[nH]c4ccc(C(=O)N[C@@H](c5ccccn5)C5CC5)cc34)cc2Cl)CC1` [Example A386, (R)-3-(3-chloro-4-((1-methylpiperidin-4-yl)oxy)phenyl)-N-(cyclopropyl(pyridin-2-yl)methyl)-1H-indazole-5-carboxamide], the 50% growth inhibitory concentration (GI50) was above 500 nM in the experiment on Breast cancer cells; 100 to 500 nM in experiment [1]; 100 to 500 nM in the experiment with TICs (Colon 12); above 500 nM in the experiment with TICs (Ovarian 2393A); 100 to 500 nM in experiment [2]. On human TTK, the half-maximal inhibitory concentration (IC50) was below 100 nM.
In the case of `O=C(NCC1(N2CCOCC2)CCCCC1)c1ccc2[nH]nc(-c3ccc(N4CCN(CCO)CC4)cc3)c2c1` [Example A459, 3-(4-(4-(2-hydroxyethyl)piperazin-1-yl)phenyl)-N-((1-morpholinocyclohexyl)methyl)-1H-indazole-5-carboxamide], the GI50 with Breast cancer cells was 100 to 500 nM; in experiment [1], below 100 nM; with TICs (Colon 12) it was 100 to 500 nM; with TICs (Ovarian 2393A), 100 to 500 nM; in experiment [2], below 100 nM. The concentration for half-maximal inhibition (IC50) on human TTK was below 100 nM.
Consider `CN1[C@@H]2CC[C@H]1C[C@@H](Oc1ccc(-c3n[nH]c4ccc(C(=O)NC(c5ccsc5)C5CCC5)cc34)cc1)C2` (stereo partly drawn) [Example A283, N-(cyclobutyl(thiophen-3-yl)methyl)-3-(4-(((1R,3R,5S)-8-methyl-8-azabicyclo[3.2.1]octan-3-yl)oxy)phenyl)-1H-indazole-5-carboxamide], for which the GI50 in the experiment with Breast cancer cells was 100 to 500 nM; in experiment [1], below 100 nM; in the experiment on TICs (Colon 12), 100 to 500 nM; with TICs (Ovarian 2393A), 100 to 500 nM; in experiment [2], below 100 nM. Moreover, on human TTK, the half-maximal inhibitory concentration (IC50) is below 100 nM.
For `CN1[C@@H]2CC[C@H]1C[C@@H](Oc1ccc(-c3n[nH]c4ccc(C(=O)NC(c5ccccn5)C5CCCC5)cc34)cc1)C2` (stereo partly drawn) [Example A244, N-(cyclopentyl(pyridin-2-yl)methyl)-3-(4-(((1R,3R,5S)-8-methyl-8-azabicyclo[3.2.1]octan-3-yl)oxy)phenyl)-1H-indazole-5-carboxamide], the GI50 was 100 to 500 nM in the experiment on Breast cancer cells; below 100 nM in experiment [1]; 100 to 500 nM with TICs (Colon 12); 100 to 500 nM in the experiment with TICs (Ovarian 2393A); below 100 nM in experiment [2]. In addition, the IC50 on human TTK was below 100 nM.
On to `O=C(N[C@H](c1ccccc1F)C1CC1)c1ccc2[nH]nc(-c3ccc(N4CCN(C5COC5)CC4)cc3)c2c1` [Example A269, (S)-N-(cyclopropyl(2-fluorophenyl)methyl)-3-(4-(4-(oxetan-3-yl)piperazin-1-yl)phenyl)-1H-indazole-5-carboxamide], for which the 50% growth inhibitory concentration (GI50) (in the experiment on Breast cancer cells; in experiment [1]; with TICs (Colon 12); in the experiment on TICs (Ovarian 2393A); in experiment [2]) was below 100 nM each time. Moreover, at human TTK, the concentration for half-maximal inhibition (IC50) was below 100 nM.
As to `O=C(NCC1(N2CCOCC2)CCCCC1)c1ccc2[nH]nc(-c3ccc(N4[C@@H]5CC[C@H]4C[C@@H](O)C5)cc3)c2c1` [Example A508, 3-(4-((1R,3R,5S)-3-hydroxy-8-azabicyclo[3.2.1]octan-8-yl)phenyl)-N-((1-morpholinocyclohexyl)methyl)-1H-indazole-5-carboxamide], the concentration for 50% growth inhibition (GI50) (in the experiment on Breast cancer cells; in experiment [1]; with TICs (Colon 12); in the experiment on TICs (Ovarian 2393A); in experiment [2]) was below 100 nM in each case. Further, at human TTK, the IC50 was below 100 nM.
In the case of `CC1=CC2(CCN(C)CC2)Oc2ccc(-c3n[nH]c4ccc(C(=O)N[C@H](c5ccccc5Cl)C(C)C)cc34)cc21` [Example A258, (S)-N-(1-(2-chlorophenyl)-2-methylpropyl)-3-(1′,4-dimethylspiro[chromene-2,4′-piperidin]-6-yl)-1H-indazole-5-carboxamide], the GI50 (in the experiment with Breast cancer cells; in experiment [1]; in the experiment on TICs (Colon 12); with TICs (Ovarian 2393A); in experiment [2]) was below 100 nM each time. The concentration for half-maximal inhibition (IC50) on human TTK is below 100 nM.
With `CN1CCC2(CC1)CC(=O)c1cc(-c3n[nH]c4ccc(C(=O)N[C@H](c5ccccn5)C5CC5)cc34)ccc1O2` [Example A257, (S)-N-(cyclopropyl(pyridin-2-yl)methyl)-3-(1′-methyl-4-oxospiro[chroman-2,4′-piperidin]-6-yl)-1H-indazole-5-carboxamide], the concentration for 50% growth inhibition (GI50) in the experiment with Breast cancer cells is 100 to 500 nM; in experiment [1], below 100 nM; with TICs (Colon 12), 100 to 500 nM; with TICs (Ovarian 2393A), 100 to 500 nM; in experiment [2], below 100 nM. Also, on human TTK, the concentration for half-maximal inhibition (IC50) is below 100 nM.
For the compound `O=C(NCC1(c2ccccc2)CCOCC1)c1ccc2[nH]nc(-c3ccc(N4[C@@H]5CC[C@H]4COC5)cc3)c2c1` [Example A502, 3-(4-((1R,5S)-3-oxa-8-azabicyclo[3.2.1]octan-8-yl)phenyl)-N-((4-phenyltetrahydro-2H-pyran-4-yl)methyl)-1H-indazole-5-carboxamide], the GI50 (in the experiment on Breast cancer cells; in experiment [1]; with TICs (Colon 12); with TICs (Ovarian 2393A); in experiment [2]) was below 100 nM in each case. Besides, the IC50 at human TTK was below 100 nM.
Consider `O=C(N[C@H](c1ccccn1)C1CCCC1)c1ccc2[nH]nc(-c3ccc(N4C5CCC4CC(O)C5)cc3)c2c1` (stereo partly drawn) [Example A360, N-((S)-cyclopentyl(pyridin-2-yl)methyl)-3-(4-((1R,3S,5S)-3-hydroxy-8-azabicyclo[3.2.1]octan-8-yl)phenyl)-1H-indazole-5-carboxamide], for which the GI50 (in the experiment with Breast cancer cells; in experiment [1]; with TICs (Colon 12); in the experiment on TICs (Ovarian 2393A); in experiment [2]) was below 100 nM in each case. The 50% inhibitory concentration (IC50) at human TTK is below 100 nM.
As for `O=C(N[C@H](c1ccccn1)C1CC1)c1ccc2[nH]nc(-c3ccc(N4CC(C5COC5)C4)cc3)c2c1` [Example A311, (S)-N-(cyclopropyl(pyridin-2-yl)methyl)-3-(4-(3-(oxetan-3-yl)azetidin-1-yl)phenyl)-1H-indazole-5-carboxamide], the GI50 (with Breast cancer cells; in experiment [1]; in the experiment on TICs (Colon 12); in the experiment on TICs (Ovarian 2393A); in experiment [2]) was below 100 nM in each case. For the same compound, the IC50 at human TTK was below 100 nM.
